Blank lines part the entries; values can stand above or below the compound they belong to.
Columns and labels:
[1] = target: T1, ROCK-1 (Homo sapiens, UniProt Q13464); experiment: ADP-Glo kinase assay, ROCK-1 inhibition; type: biochemical; details: for inhibition at 10 µM: mean ± SD, read-out: % inh. at 10 µM ROCK-1; for IC50: mean ± SEM, ATP 5 µM
T1 construct: purchased Promega
Description: (§1) We evaluated the inhibitory activity of the final compounds against GSK-3β, IKK-β, and ROCK-1 kinases using the commercially available ADP-Glo™ kinase assay. The method was based on the measurement of luminescence that correlates with kinase activity. […] The latter are inhibitors of the kinases of interest and were integral to the design of our studies.
Promega’s Kinase Enzyme Systems (Promega; Madison, WI, USA) were used to determine the activities of the tested compounds against the human recombinant kinases GSK-3β, IKK- β, and ROCK-1. The assays were performed according to the provided manufacturer’s instruction, based on the optimized conditions of the enzymatic reactions, using the low-volume, white polystyrene, 384-well plates. The ADP-Glo™ Assay (Promega; Madison, WI, USA) was used for bioluminescent detection of the kinase activity. Stock solutions of the tested compounds in DMSO (1mM) were diluted with the Kinase Assay Buffer before use (40 mM Tris, pH 7.5, enriched with 50 µM dithiothreitol; DTT), giving the final desired concentrations. The kinase enzymes, substrates, and ATP solutions were also diluted with the assay buffer prior to use. The GSK-3β, IKK-β, and ROCK-1 substrates were derived from human muscle glycogen synthase 1, human IkBA, and human 40S ribosomal protein S6, respectively. […] The DMSO solution (1% in well) was used in the blank samples instead of the tested inhibitors. After the incubation period, ATP (25 µM per well in the case of GSK-3β and IKK-β kinases; 5 µM per well in the case of ROCK-1 kinase) and an appropriate enzyme substrate (0.2 µg/µL in well) were added to start the enzymatic reaction. The reaction mixture was kept at room temperature for 1 h; then, the ADP-Glo™ reagent was added, to terminate the kinase reaction and deplete any remaining ATP. After 40 min, a second reagent (Kinase Detection Reagent) was applied to convert the obtained ADP to ATP and to generate light from the newly synthesized ATP using a luciferase/luciferin reaction. The mixture was incubated for another 30 min at room temperature before the luminescence was measured. The calculations of the percent of kinases’ inhibition by tested compounds were based on the equation 100 − (S/B) × 100; S and B are the enzyme activities with and without the tested sample, respectively. […]. IC50 results were obtained using nonlinear regression (GraphPad Prism 9; GraphPad Software, San Diego, CA, USA) by plotting the residual enzyme activities against the applied inhibitor concentration. Each compound was evaluated in two independent experiments, with every data point collected in duplicate.

[2] = target: GSK-3β (Homo sapiens, UniProt P49841); experiment: ADP-Glo kinase assay, GSK-3β inhibition; type: biochemical; design: purchased Promega; details: for IC50: mean ± SEM, ATP 25 µM; for inhibition at 10 µM: mean ± SD, read-out: % inh. at 10 µM GSK-3β
Chain of GSK-3β (P49841 whole entry): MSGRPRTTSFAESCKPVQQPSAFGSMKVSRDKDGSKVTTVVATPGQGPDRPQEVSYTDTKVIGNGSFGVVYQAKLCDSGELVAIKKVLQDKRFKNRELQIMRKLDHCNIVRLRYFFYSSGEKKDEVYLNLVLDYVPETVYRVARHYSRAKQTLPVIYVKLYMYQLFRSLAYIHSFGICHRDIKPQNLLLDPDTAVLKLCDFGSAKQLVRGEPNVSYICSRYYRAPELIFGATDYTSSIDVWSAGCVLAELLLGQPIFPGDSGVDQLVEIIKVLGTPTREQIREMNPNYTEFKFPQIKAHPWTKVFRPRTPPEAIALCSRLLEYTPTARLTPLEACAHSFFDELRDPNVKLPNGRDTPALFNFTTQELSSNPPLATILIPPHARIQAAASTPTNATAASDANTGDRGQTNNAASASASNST
Description: as §1
(§2) Promega’s Kinase Enzyme Systems (Promega; Madison, WI, USA) were used to determine the activities of the tested compounds against the human recombinant kinases GSK-3β, IKK- β, and ROCK-1. The assays were performed according to the provided manufacturer’s instruction, based on the optimized conditions of the enzymatic reactions, using the low-volume, white polystyrene, 384-well plates. The ADP-Glo™ Assay (Promega; Madison, WI, USA) was used for bioluminescent detection of the kinase activity. Stock solutions of the tested compounds in DMSO (1mM) were diluted with the Kinase Assay Buffer before use (40 mM Tris, pH 7.5, enriched with 50 µM dithiothreitol; DTT), giving the final desired concentrations. The kinase enzymes, substrates, and ATP solutions were also diluted with the assay buffer prior to use. The GSK-3β, IKK-β, and ROCK-1 substrates were derived from human muscle glycogen synthase 1, human IkBA, and human 40S ribosomal protein S6, respectively. The assay procedure was as follows: At first, the appropriate kinase enzyme (GSK-3β: 10 ng per well; IKK-β: 45 ng per well; ROCK-1: 24 ng per well) was incubated with the tested sample (10 µM in well) for 5 min. The DMSO solution (1% in well) was used in the blank samples instead of the tested inhibitors. After the incubation period, ATP (25 µM per well in the case of GSK-3β and IKK-β kinases; 5 µM per well in the case of ROCK-1 kinase) and an appropriate enzyme substrate (0.2 µg/µL in well) were added to start the enzymatic reaction. The reaction mixture was kept at room temperature for 1 h; then, the ADP-Glo™ reagent was added, to terminate the kinase reaction and deplete any remaining ATP. After 40 min, a second reagent (Kinase Detection Reagent) was applied to convert the obtained ADP to ATP and to generate light from the newly synthesized ATP using a luciferase/luciferin reaction. The mixture was incubated for another 30 min at room temperature before the luminescence was measured. The calculations of the percent of kinases’ inhibition by tested compounds were based on the equation 100 − (S/B) × 100; S and B are the enzyme activities with and without the tested sample, respectively. […] Each compound was evaluated in two independent experiments, with every data point collected in duplicate.

[3] = target: T2, IKK-β (Homo sapiens, UniProt O14920); experiment: ADP-Glo kinase assay, IKK-β inhibition; type: biochemical; details: for IC50: mean ± SEM, ATP 25 µM; for inhibition at 10 µM: mean ± SD, read-out: % inh. at 10 µM IKK-β
T2 construct: purchased Promega
T2 sequence (O14920 1-756): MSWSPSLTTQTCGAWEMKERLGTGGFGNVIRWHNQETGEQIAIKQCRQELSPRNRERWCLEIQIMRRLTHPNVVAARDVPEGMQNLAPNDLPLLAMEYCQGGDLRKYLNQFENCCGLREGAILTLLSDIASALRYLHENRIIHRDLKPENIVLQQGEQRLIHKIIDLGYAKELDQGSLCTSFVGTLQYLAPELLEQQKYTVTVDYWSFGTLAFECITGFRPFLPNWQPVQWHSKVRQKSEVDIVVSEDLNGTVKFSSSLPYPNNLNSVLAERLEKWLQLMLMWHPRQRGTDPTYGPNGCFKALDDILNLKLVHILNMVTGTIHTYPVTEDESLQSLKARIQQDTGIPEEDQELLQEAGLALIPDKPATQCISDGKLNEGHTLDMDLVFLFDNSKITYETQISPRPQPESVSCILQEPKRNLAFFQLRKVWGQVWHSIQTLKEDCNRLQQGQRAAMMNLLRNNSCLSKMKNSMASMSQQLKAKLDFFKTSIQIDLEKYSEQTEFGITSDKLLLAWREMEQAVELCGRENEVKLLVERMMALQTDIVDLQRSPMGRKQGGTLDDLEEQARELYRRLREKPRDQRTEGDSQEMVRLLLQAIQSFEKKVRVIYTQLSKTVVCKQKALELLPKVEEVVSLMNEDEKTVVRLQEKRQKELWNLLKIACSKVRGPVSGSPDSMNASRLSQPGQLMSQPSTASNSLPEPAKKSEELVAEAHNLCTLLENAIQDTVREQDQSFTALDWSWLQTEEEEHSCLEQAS
Description: as §1, §2

[4] = system: ROCK-1; design: method as in PMID 28284870; details: Figure 1; cited from earlier work
[5] = system: IKK-β; design: method as in PMID 15125939; details: Figure 1; cited from earlier work

T1 sequence (Q13464 whole entry): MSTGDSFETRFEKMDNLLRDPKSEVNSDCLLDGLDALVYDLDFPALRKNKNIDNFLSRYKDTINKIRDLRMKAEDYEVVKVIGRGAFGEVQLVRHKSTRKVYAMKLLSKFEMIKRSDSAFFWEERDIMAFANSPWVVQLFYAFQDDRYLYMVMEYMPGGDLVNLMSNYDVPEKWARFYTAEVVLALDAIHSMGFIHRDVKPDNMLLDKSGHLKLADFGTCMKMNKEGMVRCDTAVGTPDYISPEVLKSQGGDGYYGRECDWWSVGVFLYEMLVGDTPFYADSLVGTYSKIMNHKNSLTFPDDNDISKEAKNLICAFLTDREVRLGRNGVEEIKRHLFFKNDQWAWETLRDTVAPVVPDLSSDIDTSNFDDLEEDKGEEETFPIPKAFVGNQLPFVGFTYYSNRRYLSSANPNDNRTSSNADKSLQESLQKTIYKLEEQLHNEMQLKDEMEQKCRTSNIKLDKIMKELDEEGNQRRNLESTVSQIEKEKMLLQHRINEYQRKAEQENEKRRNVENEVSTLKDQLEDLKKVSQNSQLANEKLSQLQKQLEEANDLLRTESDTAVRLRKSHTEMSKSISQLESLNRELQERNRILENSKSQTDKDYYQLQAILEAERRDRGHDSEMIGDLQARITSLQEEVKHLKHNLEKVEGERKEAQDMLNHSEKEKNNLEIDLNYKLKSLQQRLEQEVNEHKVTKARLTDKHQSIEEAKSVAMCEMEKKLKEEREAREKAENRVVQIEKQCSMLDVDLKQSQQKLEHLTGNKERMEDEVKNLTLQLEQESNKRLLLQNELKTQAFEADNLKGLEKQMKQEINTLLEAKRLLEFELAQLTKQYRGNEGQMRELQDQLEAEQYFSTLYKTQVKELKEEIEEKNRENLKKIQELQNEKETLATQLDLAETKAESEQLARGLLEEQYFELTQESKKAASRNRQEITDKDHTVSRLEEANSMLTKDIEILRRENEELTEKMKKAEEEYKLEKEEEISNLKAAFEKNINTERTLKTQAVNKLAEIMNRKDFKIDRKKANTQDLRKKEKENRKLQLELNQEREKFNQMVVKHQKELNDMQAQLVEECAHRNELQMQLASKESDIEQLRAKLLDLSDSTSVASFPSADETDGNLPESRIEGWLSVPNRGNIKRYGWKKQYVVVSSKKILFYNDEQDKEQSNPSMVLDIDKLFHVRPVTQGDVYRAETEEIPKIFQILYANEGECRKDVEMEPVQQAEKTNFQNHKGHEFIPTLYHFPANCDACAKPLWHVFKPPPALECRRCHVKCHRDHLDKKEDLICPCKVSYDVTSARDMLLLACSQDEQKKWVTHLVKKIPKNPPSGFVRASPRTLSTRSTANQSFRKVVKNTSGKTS

Structure (SMILES): CC(=O)Nc1cc(-c2cc(NC(N)=O)c(C(N)=O)s2)ccn1 [Compound 47, 5-(2-Acetamidopyridin-4-yl)-3-ureidothiophene-2-carboxamide]
- inhibition at 10 µM [2]: 34%
- inhibition at 10 µM [3]: 17%

Structure (SMILES): NC(=O)Nc1cc(-c2ccnc(NC(=O)C3CCCCC3)c2)sc1C(N)=O [Compound 51, 5-(2-(Cyclohexanecarboxamido)pyridin-4-yl)-3-ureidothiophene-2-carboxamide]
- IC50 [2]: 614 ± 26 nM
- inhibition at 10 µM [3]: < 10%

Structure (SMILES): NC(=O)Nc1cc(-c2ccnc(NC(=O)c3ccccc3)c2)sc1C(N)=O [Compound 52, 5-(2-Benzamidopyridin-4-yl)-3-ureidothiophene-2-carboxamide]
- inhibition at 10 µM [1]: 15%
- IC50 [2]: 398 ± 12 nM
- inhibition at 10 µM [3]: 30%

Structure (SMILES): CC1(C)NC(=O)c2sc(-c3cccc(NC(=O)C4CC4)c3)cc2N1 [Compound 53, N-(3-(2,2-Dimethyl-4-oxo-1,2,3,4-tetrahydrothieno [3,2-d]pyrimidin-6-yl)phenyl)cyclopropanecarboxamide]
- inhibition at 10 µM [1]: < 10%
- inhibition at 10 µM [2]: 47%
- inhibition at 10 µM [3]: < 10%

Structure (SMILES): CC1(C)NC(=O)c2sc(-c3ccc(F)c(NC(=O)C4CC4)c3)cc2N1 [Compound 54, N-(5-(2,2-Dimethyl-4-oxo-1,2,3,4-tetrahydrothieno [3,2-d]pyrimidin-6-yl)-2-fluorophenyl)-cyclopropanecarboxamide]
- IC50 [2]: 453 ± 13 nM
- inhibition at 10 µM [3]: 10%

Structure (SMILES): CC1(C)NC(=O)c2sc(-c3cccc(NS(=O)(=O)C4CCCCC4)c3)cc2N1 [Compound 56, N-(3-(2,2-Dimethyl-4-oxo-1,2,3,4-tetrahydrothieno [3,2-d]pyrimidin-6-yl)phenyl)cyclohexanesulfonamide]
- inhibition at 10 µM [1]: 33%
- inhibition at 10 µM [2]: < 10%
- inhibition at 10 µM [3]: < 10%

Structure (SMILES): NC(=O)Nc1cc(-c2ccc(F)c(NC(=O)C3CC3)c2)sc1C(N)=O [Compound 59, 5-(3-(Cyclopropanecarboxamido)-4-fluorophenyl)-3-ureidothiophene-2-carboxamide]
- inhibition at 10 µM [1]: < 10%
- IC50 [2]: 1850 ± 38 nM
- IC50 [3]: 7620 ± 695 nM

Structure (SMILES): O=C1NC2(CCCO2)Nc2cc(-c3ccnc(NC(=O)C4CC4)c3)sc21 (stereo not shown) [Compound 61, N-(4-(4′-Oxo-3′,4,4′,5-tetrahydro-1′H,3H-spiro[furan-2,2′-thieno [3,2-d]pyrimidin]-6′-yl)pyridin-2-yl)cyclopropanecarboxamide]
- inhibition at 10 µM [1]: 40%
- IC50 [2]: 12 nM
- inhibition at 10 µM [3]: < 10%

Structure (SMILES): NC(=O)Nc1cc(-c2ccc(F)cc2)sc1C(N)=O [III, reference compound]
- IC50 [5]: 63 nM
- inhibition at 10 µM [2]: 47%
- IC50 [3]: 405 ± 9 nM

Now from value to compound, other results behind:

- inhibition at 10 µM [1]: 50%
- IC50 [2]: 1130 ± 43 nM
- IC50 [3]: 6520 ± 281 nM
Structure (SMILES): CC(=O)Nc1cc(-c2cc3c(s2)C(=O)NC(C)(C)N3)ccn1 [Compound 38, N-(4-(2,2-Dimethyl-4-oxo-1,2,3,4-tetrahydrothieno [3,2-d]pyrimidin-6-yl)pyridin-2-yl)acetamide]

- inhibition at 10 µM [1]: 30%
- IC50 [2]: 830 ± 30 nM
- inhibition at 10 µM [3]: 18%
Structure (SMILES): CC1(C)NC(=O)c2sc(-c3ccnc(NC(=O)C4CCCCC4)c3)cc2N1 [Compound 42, N-(4-(2,2-Dimethyl-4-oxo-1,2,3,4-tetrahydrothieno [3,2-d]pyrimidin-6-yl)pyridin-2-yl)-cyclohexanecarboxamide]

- IC50 [1]: 3740 ± 217 nM
- IC50 [2]: 1310 ± 42 nM
- inhibition at 10 µM [3]: 38%
Structure (SMILES): CC1(C)NC(=O)c2sc(-c3ccnc(NC(=O)c4ccccc4)c3)cc2N1 [Compound 43, N-(4-(2,2-Dimethyl-4-oxo-1,2,3,4-tetrahydrothieno [3,2-d]pyrimidin-6-yl)pyridin-2-yl)benzamide]

- inhibition at 10 µM [1]: < 10%
- inhibition at 10 µM [2]: 32%
- inhibition at 10 µM [3]: < 10%
Structure (SMILES): CC1(C)NC(=O)c2sc(-c3ccnc(NS(C)(=O)=O)c3)cc2N1 [Compound 44, N-(4-(2,2-Dimethyl-4-oxo-1,2,3,4-tetrahydrothieno [3,2-d]pyrimidin-6-yl)pyridin-2-yl)-methanesulfonamide]

- inhibition at 10 µM [1]: < 10%
- inhibition at 10 µM [2]: 40%
- inhibition at 10 µM [3]: < 10%
Structure (SMILES): CCS(=O)(=O)Nc1cc(-c2cc3c(s2)C(=O)NC(C)(C)N3)ccn1 [Compound 45, N-(4-(2,2-Dimethyl-4-oxo-1,2,3,4-tetrahydrothieno [3,2-d]pyrimidin-6-yl)pyridin-2-yl)-ethanesulfonamide]

- IC50 [1]: 1730 ± 78 nM
- inhibition at 10 µM [2]: 39%
- inhibition at 10 µM [3]: 41%
Structure (SMILES): CC1(C)NC(=O)c2sc(-c3ccnc(NCC4CC4)c3)cc2N1 [Compound 46, 6-(2-((Cyclopropylmethyl)amino)pyridin-4-yl)-2,2-dimethyl-2,3-dihydrothieno [3,2-d]pyrimidin-4(1H)-one]

- inhibition at 10 µM [1]: < 10%
- inhibition at 10 µM [2]: 11%
- inhibition at 10 µM [3]: 16%
Structure (SMILES): CCS(=O)(=O)Nc1cccc(-c2cc3c(s2)C(=O)NC(C)(C)N3)c1 [Compound 55, N-(3-(2,2-Dimethyl-4-oxo-1,2,3,4-tetrahydrothieno [3,2-d]pyrimidin-6-yl)phenyl)ethanesulfonamide]

- inhibition at 10 µM [1]: < 10%
- inhibition at 10 µM [2]: < 10%
- inhibition at 10 µM [3]: 17%
Structure (SMILES): CC1(C)NC(=O)c2sc(-c3cccc(S(=O)(=O)N4CCCCC4)c3)cc2N1 [Compound 57, 2,2-Dimethyl-6-(3-(piperidin-1-ylsulfonyl)phenyl)-2,3-dihydrothieno [3,2-d]pyrimidin-4(1H)-one]

- IC50 [1]: 119 ± 6 nM
- IC50 [2]: 161 ± 2 nM
- inhibition at 10 µM [3]: 46%
Structure (SMILES): CC1(C)NC(=O)c2sc(-c3ccncc3)cc2N1 [I, reference compound]
- IC50 [4]: 90 nM
